# Assay results published in patent US10335453B2, “Compositions and methods for improving sexual function” (Nymox Corporation, priority 2017, dated 2019).
# Peptide text beside a SMILES is read from it.
# Legend:
# patients with BPH = assay: Example 1: Sexual Function Questionnaire (SFQ), treatment naïve BPH patients, one intraprostatic injection, 12 months follow-up; assay type: in vivo, human; details: at 12 months
# Procedure: Three hundred and seventy (370) patients with BPH and with no prior history of any conventional approved medical or surgical treatment (“treatment naïve”) for BPH were given an intraprostatic injection of either (a) NX-1207 (2.5 mg) in phosphate buffered saline pH 7.2 (“PBS”) (n=213) or (b) PBS alone (n=157), under double-blind conditions by a urologist in an office setting under ultrasound guidance. These patients were followed for 12 months after treatment and their progress was monitored by urological investigations. Prior to their treatment each patient's sexual function was assessed by history and each patient completed a Sexual Function Questionnaire (“SFQ”) which scored from 0 to 12 points the degree to which the patient considered they had any problems with 1. lack of sex drive, 2. ability to get and keep an erection, and 3. problems with ejaculation, (Problem Assessment Scale of the Brief Male Sexual Function Inventory). A higher score indicates improvement with a better sexual functional self-assessment and less of a sexual problem; a lower score indicates worsening with more of a sexual problem. Many approved BPH medications and treatments are associated with lower scores. The SFQ was subsequently re-administered 12 months post-treatment. The difference from baseline score in the SFQ was compared in NX-1207 patients vs results in patients who received PBS alone.
# [1] = system: BPH patients with significant sexual problems; assay: Example 2: SFQ, treatment naïve BPH patients with significant sexual problems (baseline SFQ<=3), one intraprostatic injection, 12 months; assay type: in vivo, human; details: at 12 months
# Procedure: One hundred twenty three (123) BPH patients with significant sexual problems and with no prior history of any conventional approved medical or surgical treatment (“treatment naïve”) for BPH were given an intraprostatic injection of either (a) NX-1207 (2.5 mg) in phosphate buffered saline pH 7.2 (“PBS”) (n=75) or (b) PBS alone (n=48), under double-blind conditions by a urologist in an office setting under ultrasound guidance. These patients were followed for 12 months after treatment and their progress was monitored by urological investigations. Prior to their treatment each patient's sexual function was assessed by history and each patient completed a Sexual Function Questionnaire (“SFQ”) which scored from 0 to 12 points the degree to which the patient considered they had any problems with 1. lack of sex drive, 2. ability to get and keep an erection, and 3. problems with ejaculation; (Problem Assessment Scale of the Brief Male Sexual Function Inventory). A higher score indicates improvement with a better sexual functional self-assessment and less of a sexual problem; a lower score indicates worsening with more of a sexual problem. Many approved BPH medications and treatments, and conditions are associated with lower scores. All 123 BPH patients in this group had baseline pre-treatment SFQ scores<=3 points indicating significant sexual problems. […]
# BPH patients [2] = assay: Example 3: SFQ mean change, treatment naïve BPH patients, two NX-1207 injections vs PBS followed by one NX-1207 injection; details: human, in vivo
# Procedure: One hundred and fifty six (156) BPH patients with no prior history of any conventional approved medical or surgical treatment (“treatment naïve”) for BPH were given an intraprostatic injection of either (a) NX-1207 (2.5 mg) in phosphate buffered saline pH 7.2 (“PBS”) (n=88) or (b) PBS alone (n=68), under double-blind conditions by a urologist in an office setting under ultrasound guidance. All patients were followed for a period of 12.6-51.1 months and then treated by a second open-label injection of NX-1207 (2.5 mg) in PBS. Prior to their treatment each patient's sexual function was assessed by history and each patient completed a Sexual Function Questionnaire (“SFQ”) which scored from 0 to 12 points the degree to which the patient considered they had any problems with 1. lack of sex drive, 2. ability to get and keep an erection, and 3. problems with ejaculation, (Problem Assessment Scale of the Brief Male Sexual Function Inventory). A higher score indicates improvement with a better sexual functional self-assessment and less of a sexual problem; a lower score indicates worsening with more of a sexual problem. Many approved BPH medications and treatments are associated with lower scores. The SFQ was subsequently re-administered 6 months post second treatment. […]
# BPH patients [3] = assay: Example 4: proportion with no worsening or improvement in SFQ, two NX-1207 injections vs PBS followed by one NX-1207 injection; parameters: species or system human; details: in vivo
# Procedure: One hundred and fifty (150) BPH patients with no prior history of any conventional approved medical or surgical treatment (“treatment naïve”) for BPH were given an intraprostatic injection of either (a) NX-1207 (2.5 mg) in phosphate buffered saline pH 7.2 (“PBS”) (n=83) or (b) PBS alone (n=67), under double-blind conditions by a urologist in an office setting under ultrasound guidance. All patients were followed for a period of 12.6-51.1 months and then treated by a second open-label injection of NX-1207 (2.5 mg) in PBS. Prior to their treatment each patient's sexual function was assessed by history and each patient completed a Sexual Function Questionnaire (“SFQ”) which scored from 0 to 12 points the degree to which the patient considered they had any problems with 1. lack of sex drive, 2. ability to get and keep an erection, and 3. problems with ejaculation, (Problem Assessment Scale of the Brief Male Sexual Function Inventory). A higher score indicates improvement with a better sexual functional self-assessment and less of a sexual problem; a lower score indicates worsening with more of a sexual problem. Many approved BPH medications and treatments are associated with lower scores. The SFQ was subsequently re-administered 6 months post second treatment. […]
# BPH patients [4] = assay: Example 5: SFQ long-term mean change, treatment naive BPH patients, one injection, 12.6-51.1 months; assay type: in vivo, human; details: at 12.6-51.1 months
# Procedure: One hundred and fifty (150) BPH patients with no prior history of any conventional approved medical or surgical treatment (“treatment naive”) for BPH were given an intraprostatic injection of either (a) (2.5 mg) NX-1207 (2.5 mg) in phosphate buffered saline pH 7.2 (“PBS”) (n=83) or (b) PBS alone (n=67) under double-blind conditions by a urologist in an office setting under ultrasound guidance. These patients were followed for 12.6-51.1 months after treatment and their progress was monitored by urological investigations. Prior to their treatment each patient's sexual function was assessed by history and each patient completed a Sexual Function Questionnaire (“SFQ”) which scored from 0 to 12 points the degree to which the patient considered they had any problems with 1. lack of sex drive, 2. ability to get and keep an erection, and 3. problems with ejaculation; (Problem Assessment Scale of the Brief Male Sexual Function Inventory). A higher score indicates improvement with a better sexual functional self-assessment and less of a sexual problem; a lower score indicates worsening with more of a sexual problem. Many approved BPH medications and treatments are associated with lower scores. The SFQ was subsequently re-administered 12.6-51.1 months post-treatment.
# BPH patients [5] = assay: Example 6: proportion of treatment-naive BPH patients with SFQ<=3, NX-1207 vs PBS, 12.6-51.1 months; assay type: in vivo, human; details: at 12.6-51.1 months
# Procedure: Three hundred twenty four (324) BPH patients were given an intraprostatic injection of either (a) NX-1207 (2.5 mg) in phosphate buffered saline pH 7.2 (“PBS”) (n=189) or (b) PBS alone (n=135), under double-blind conditions by a urologist in an office setting under ultrasound guidance. These patients were followed for 12.6-51.1 months after treatment and their progress was monitored by urological investigations. Prior to their treatment each patient's sexual function was assessed by history and each patient completed a Sexual Function Questionnaire (“SFQ”) which scored from 0 to 12 points the degree to which the patient considered they had any problems with 1. lack of sex drive, 2. ability to get and keep an erection, and 3. problems with ejaculation; (Problem Assessment Scale of the Brief Male Sexual Function Inventory). A higher score indicates improvement with a better sexual functional self-assessment and less of a sexual problem; a lower score indicates worsening with more of a sexual problem. Many approved BPH medications and treatments are associated with lower scores. Eighty nine (89) BPH patients in this group had baseline pre-treatment SFQ scores<=3 points indicating significant sexual problems. The SFQ was subsequently re-administered 12.6-51.1 months post-treatment. […]
# BPH patients [6] = assay: Example 7: proportion of BPH patients with SFQ<=3, NX-1207 in treatment naive vs previously treated patients; assay type: in vivo, human; details: at 12.6-51.1 months
# Procedure: Three hundred and twenty four (324) BPH patients were given an intraprostatic injection of either (a) NX-1207 (2.5 mg) in phosphate buffered saline pH 7.2 (“PBS”) (n=189) or (b) PBS alone (n=135), under double-blind conditions by a urologist in an office setting under ultrasound guidance. These patients were followed for 12.6-51.1 months after treatment and their progress was monitored by urological investigations. Prior to their treatment each patient's sexual function was assessed by history and each patient completed a Sexual Function Questionnaire (“SFQ”) which scored from 0 to 12 points the degree to which the patient considered they had any problems with 1. lack of sex drive, 2. ability to get and keep an erection, and 3. problems with ejaculation; (Problem Assessment Scale of the Brief Male Sexual Function Inventory). A higher score indicates improvement with a better sexual functional self-assessment and less of a sexual problem; a lower score indicates worsening with more of a sexual problem. Many approved BPH medications and treatments are associated with lower scores. Eighty nine (89) BPH patients in this group had baseline pre-treatment SFQ scores<=3 points indicating significant sexual problems. The SFQ was subsequently re-administered 12.6-51.1 months post-treatment. […]
# prostate gland = details: human, in vivo; cited from earlier work
smiles,measurement,setting,value
"CC[C@H](C)[C@H](N)C(=O)N[C@@H](CC(=O)O)C(=O)N[C@@H](CCC(N)=O)C(=O)N[C@@H](CCC(N)=O)C(=O)N[C@H](C(=O)N[C@@H](CC(C)C)C(=O)N[C@@H](CO)C(=O)N[C@@H](CCCNC(=N)N)C(=O)N[C@H](C(=O)N[C@@H](CCCCN)C(=O)N[C@@H](CC(C)C)C(=O)N[C@@H](CCC(=O)O)C(=O)N[C@H](C(=O)N[C@@H](CCCCN)C(=O)N[C@@H](CCCNC(=N)N)C(=O)N[C@@H](CS)C(=O)N[C@@H](CC(C)C)C(=O)O)[C@@H](C)CC)[C@@H](C)CC)C(C)C [SEQ ID NO: 66, IDQQVLSRIKLEIKRCL] (H-IDQQVLSRIKLEIKRCL-OH)",sexual adverse events attributable to NX-1207,patients with BPH,no significant incidence of sexual adverse events
same,sexual adverse events attributable to NX-1207,[1],no significant incidence of sexual adverse events
same,sexual adverse events attributable to NX-1207,BPH patients [2],no significant incidence of sexual adverse events
same,sexual adverse events attributable to NX-1207,BPH patients [3],no significant incidence of sexual adverse events
same,sexual adverse events attributable to NX-1207,BPH patients [4],no significant incidence of sexual adverse events
same,sexual adverse events attributable to NX-1207,BPH patients [5],no significant incidence of sexual adverse events
same,sexual adverse events attributable to NX-1207,BPH patients [6],no incidence of significant sexual adverse events
same,safety profile,prostate gland,excellent safety profile
